Assay results from ChEMBL document CHEMBL2010656, “Design, synthesis and evaluation of isaindigotone derivatives as dual inhibitors for acetylcholinesterase and amyloid beta aggregation” (Bioorg Med Chem, 2012).
Active and inactive are the calls of the source. The rule behind the calls is not given here.

Tests used:
Cholinesterase = Cholinesterase (Equus caballus, UniProt P81908)
Description: Inhibition of equine serum butyrylcholinesterase using butyrylthiocholine chloride as substrate preincubated for 15 mins before substrate addition by Ellman's method

Acetylcholinesterase = Acetylcholinesterase (Electrophorus electricus, UniProt O42275)
Description: Inhibition of electric eel acetylcholinesterase using acetylcholine chloride as substrate preincubated for 15 mins before substrate addition by Ellman's method

[1] = Inhibition of amyloid beta (1 to 40) self-mediated aggregation at 10 uM after 72 hrs by thioflavin T based fluorometric assay relative to control
[2] = biological target: Acetylcholinesterase (Electrophorus electricus) (UniProt O42275); assay: Mixed type inhibition of electric eel acetylcholinesterase preincubated for 15 mins by Lineweaver-Burk plot analysis
Chain of Acetylcholinesterase (Electrophorus electricus) (O42275 24-633 limits assumed): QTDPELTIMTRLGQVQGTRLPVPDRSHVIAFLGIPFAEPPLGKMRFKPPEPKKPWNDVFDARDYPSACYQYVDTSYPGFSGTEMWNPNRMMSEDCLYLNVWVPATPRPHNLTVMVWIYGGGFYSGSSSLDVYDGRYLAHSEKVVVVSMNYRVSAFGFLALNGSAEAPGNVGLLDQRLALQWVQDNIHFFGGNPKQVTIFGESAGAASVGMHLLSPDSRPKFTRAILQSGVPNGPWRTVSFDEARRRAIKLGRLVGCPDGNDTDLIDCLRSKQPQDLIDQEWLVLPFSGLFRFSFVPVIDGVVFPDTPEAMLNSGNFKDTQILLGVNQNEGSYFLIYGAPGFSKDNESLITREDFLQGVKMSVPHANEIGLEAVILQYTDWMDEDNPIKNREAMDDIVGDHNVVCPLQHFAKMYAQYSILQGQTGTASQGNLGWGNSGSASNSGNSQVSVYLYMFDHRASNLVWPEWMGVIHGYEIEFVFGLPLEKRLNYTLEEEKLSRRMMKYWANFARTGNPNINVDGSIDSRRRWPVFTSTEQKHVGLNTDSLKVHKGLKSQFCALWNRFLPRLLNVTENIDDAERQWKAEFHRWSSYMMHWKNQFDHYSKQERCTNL

[3] = Inhibition of amyloid beta (1 to 40) self-mediated aggregation assessed as change in alpha-helix structure formation at 20 uM after 3 days by CD spectropolarimetric analysis
[4] = Inhibition of amyloid beta (1 to 40) self-mediated aggregation assessed as reduction in beta-sheet structure formation at 20 uM after 3 days by CD spectropolarimetric analysis
[5] = Inhibition of amyloid beta (1 to 40) self-mediated aggregation assessed as inhibition of extended fibrils formation at 10 uM after 4 days by transmission electron microscopic analysis

Chain of Acetylcholinesterase (O42275 whole entry): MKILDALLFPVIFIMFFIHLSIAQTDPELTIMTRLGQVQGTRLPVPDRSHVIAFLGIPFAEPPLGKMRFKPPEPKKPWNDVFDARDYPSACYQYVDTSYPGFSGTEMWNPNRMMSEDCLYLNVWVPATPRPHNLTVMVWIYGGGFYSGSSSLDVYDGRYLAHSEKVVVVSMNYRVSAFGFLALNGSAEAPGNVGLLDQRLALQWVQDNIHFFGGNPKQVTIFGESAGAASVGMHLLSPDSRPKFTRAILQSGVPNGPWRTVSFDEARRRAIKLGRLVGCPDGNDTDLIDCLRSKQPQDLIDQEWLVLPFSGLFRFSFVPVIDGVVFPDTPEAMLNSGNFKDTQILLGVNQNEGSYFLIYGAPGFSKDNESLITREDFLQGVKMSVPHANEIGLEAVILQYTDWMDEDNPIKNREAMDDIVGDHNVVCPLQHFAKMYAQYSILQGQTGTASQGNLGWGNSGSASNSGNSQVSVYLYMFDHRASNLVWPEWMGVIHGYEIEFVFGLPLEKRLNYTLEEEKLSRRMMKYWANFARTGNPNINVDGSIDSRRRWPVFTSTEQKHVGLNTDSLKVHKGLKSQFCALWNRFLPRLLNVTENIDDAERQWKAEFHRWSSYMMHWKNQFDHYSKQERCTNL
Chain of Cholinesterase (P81908 whole entry): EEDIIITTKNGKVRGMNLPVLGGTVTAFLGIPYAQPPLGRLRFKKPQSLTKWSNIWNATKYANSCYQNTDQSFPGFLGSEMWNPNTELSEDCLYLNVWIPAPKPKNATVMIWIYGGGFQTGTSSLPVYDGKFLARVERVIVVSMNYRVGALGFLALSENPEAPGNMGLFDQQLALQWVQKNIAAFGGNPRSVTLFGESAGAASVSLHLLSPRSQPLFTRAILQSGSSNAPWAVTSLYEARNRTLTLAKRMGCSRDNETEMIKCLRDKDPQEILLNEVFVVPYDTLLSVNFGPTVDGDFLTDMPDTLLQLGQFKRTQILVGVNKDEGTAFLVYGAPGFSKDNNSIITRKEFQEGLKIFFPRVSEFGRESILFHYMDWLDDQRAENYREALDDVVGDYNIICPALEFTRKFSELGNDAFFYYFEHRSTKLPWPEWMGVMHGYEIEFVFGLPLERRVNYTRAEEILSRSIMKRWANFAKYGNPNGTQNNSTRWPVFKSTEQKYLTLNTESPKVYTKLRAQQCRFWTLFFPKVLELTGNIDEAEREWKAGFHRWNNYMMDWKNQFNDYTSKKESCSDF

SMILES	IC50 (Cholinesterase) [µM]	IC50 (Acetylcholinesterase) [µM]	inhibition [1] [%]	inhibition [2]	inhibition [3]	inhibition [4]	inhibition [5]
O=C(CC[n+]1ccccc1)Nc1ccc(/C=C2\CCn3c2nc2cc(Cl)ccc2c3=O)cc1	1.7	0.049	49				
O=C(NCCN1CCCC1)c1ccc(/C=C2\CCn3c2nc2cc(Cl)ccc2c3=O)cc1	11.1	0.045	57.4				
CN(C)CCNC(=O)c1ccc(/C=C2\CCn3c2nc2cc(Cl)ccc2c3=O)cc1	> 20	0.16	36.8				
O=C(NCCCN1CCCC1)c1ccc(/C=C2\CCCn3c2nc2cc(Cl)ccc2c3=O)cc1	0.5	1.21	53.3				
CN(C)CCCNC(=O)c1ccc(/C=C2\CCCn3c2nc2cc(Cl)ccc2c3=O)cc1	6.64	2.05	49.8				
O=C(CCN1CCCCC1)Nc1ccc(/C=C2\CCCn3c2nc2cc(Cl)ccc2c3=O)cc1	5.99	0.031	52.9				
CN(C)CCCNC(=O)c1ccc(/C=C2\CCn3c2nc2cc(Cl)ccc2c3=O)cc1	5.18	1.42	56.5				
CCN(CC)CCC(=O)Nc1ccc(/C=C2\CCn3c2nc2cc(Cl)ccc2c3=O)cc1	6.44	0.06	39				
COc1cc(/C=C/C(=O)CC(=O)/C=C/c2ccc(O)c(OC)c2)ccc1O			48.8				
O=C(CCN1CCCC1)Nc1ccc(/C=C2\CCCn3c2nc2cc(Cl)ccc2c3=O)cc1	6.45	> 1	53.5				
CCN(CC)CCC(=O)Nc1ccc(/C=C2\CCCn3c2nc2cc(Cl)ccc2c3=O)cc1	2.34	> 1	54.8				
O=C(CC[n+]1ccccc1)Nc1ccc(/C=C2\CCCn3c2nc2cc(Cl)ccc2c3=O)cc1	3.38	0.82	33				
O=C(NCCCN1CCCC1)c1ccc(/C=C2\CCn3c2nc2cc(Cl)ccc2c3=O)cc1	0.61	1.44	36.2				
CN(C)CCNC(=O)c1ccc(/C=C2\CCCn3c2nc2cc(Cl)ccc2c3=O)cc1	> 40	0.36	54.5				
O=C(NCCN1CCCC1)c1ccc(/C=C2\CCCn3c2nc2cc(Cl)ccc2c3=O)cc1	6.75	1.51	53.6				
O=C(CCN1CCCCC1)Nc1ccc(/C=C2\CCn3c2nc2cc(Cl)ccc2c3=O)cc1	2.88	0.023	49.8				
O=C(CCN1CCCC1)Nc1ccc(/C=C2\CCn3c2nc2cc(Cl)ccc2c3=O)cc1	3.82	0.041	62.3	Active	inactive	Active	Active
